9 molecules from patent publication US20230210999A1, “TARGETED PROTEASE DEGRADATION (TED) PLATFORM” (EUBULUS BIOTHERAPEUTICS INC., priority 2020, published 2023) can be followed below.

The subject of one experiment is MV4;11 cells. Briefly: Cell proliferation experiment (Alamar blue, 72 h), MV4;11. The class given is cell-based, human. The conditions noted are these: Homo sapiens, MV4-11, 72 h, MV4;11 cells, 72 h; read-out: Inhibitory activity IC50 of tested compounds on MV4;11 cells. In outline:
(§1)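 Log-phase cells seeded, then exposed 72 h to test compound in a 5-fold dilution series, duplicate wells per concentration. Growth read by Alamar blue fluorescence; […].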
(In general: Resazurin is reduced to fluorescent resorufin, in cell work by metabolically active cells.)

In a further experiment the test system is HL-60 cells. The experiment is described as follows: Cell proliferation experiment, HL-60. Type of experiment: cell-based. The note with it: Homo sapiens, 72 h, read-out: Inhibitory activity IC50 of tested compounds on HL-60 cells. As to the method:
Reagents: RPMI-1640 medium, McCoy's 5A medium, IMDM medium, MEM medium, L-15 medium, fetal bovine serum. Penicillin-Streptomycin double antibody, trypsin, etc., 2-mercaptoethanol, NEAA, pyruvate, etc.
The cells were cultured in conventional ways, and the cells should be passed at least 2 generations before plating. Cells at the logarithmic growth phase were collected, prepared into single cell suspensions and counted. The concentration of cells was adjusted to the desired concentration, and cells were inoculated into a 96-well cell culture plate at 100 μl per well. 100 μL of complete medium of the test compound were added to each well, set up 2 duplicate wells for each concentration, and diluted with a 5-fold gradient, and continued to culture for 72 h. All cells were subjected to IC50 test for corresponding samples. The experimental results are shown in Test Example 4.
The fluorescence intensity of each well was detected using the Alarm blue method, and IC50 was calculated.
IC50 was calculated according to the following formula:
Y=Max+(Min−Max)/[1+(X/IC50)×Slope]
wherein Min, Max and Slope represent the minimum, maximum and slope respectively.

The next experiment has as its system NCIH82 cells. The experiment is described as follows: Cell proliferation experiment, NCI-H82. The conditions noted are these: Homo sapiens, NCI-H82, 72 h, NCIH82 cells, 72 h; read-out: Inhibitory activity IC50 of tested compounds on NCIH82 cells. Type of experiment: cell-based, human. A digest of the protocol: as §1
A further experiment has as its system HT-29 cells. The experiment is described as follows: Cell proliferation experiment, HT-29. The class given is cell-based. The conditions noted are these: Homo sapiens; HT-29 cells, 72 h; read-out: Inhibitory activity IC50 of tested compounds on HT-29 cells. A digest of the protocol:
as §1

The test system of another experiment is U-87MG cells. The experiment is described as follows: Cell proliferation experiment, U-87MG. The class given is cell-based. The note with it: Homo sapiens; U-87MG cells, 72 h; read-out: Inhibitory activity IC50 of tested compounds on U-87MG cells. In outline: as §1
A further experiment deals with Daudi cells. The experiment is described as follows: Cell proliferation experiment, Daudi. The class given is cell-based, human. The note with it: Homo sapiens, Daudi, 72 h, Daudi cells, 72 h; read-out: Inhibitory activity IC50 of tested compounds on Daudi cells. A digest of the protocol:
as §1

Each structure is given as a SMILES string. Some results are limits rather than exact numbers.

One may read the IC50 as the concentration at which inhibition is half-maximal. `CC[C@@H]1C(=O)N(C)c2cnc(Nc3ccc(C(=O)NC4CCN(CCCNCCOCCC#Cc5cccc6c5CN(C5CCC(=O)NC5=O)C6=O)CC4)cc3OC)nc2N1C1CCCC1` (some centres unmarked) [Compound 905]: the IC50 with MV4;11 cells is no more than 100 nM; in the experiment on HL-60 cells it was no more than 1000 nM; in the experiment with NCIH82 cells, greater than 1000 nM; with HT-29 cells, greater than 1000 nM; in the experiment with U-87MG cells it was 100 to 500 nM.

As for `CC[C@@H]1C(=O)N(C)c2cnc(Nc3ccc(C(=O)NC4CCN(CCCNCCCOCCCC#Cc5cccc6c5CN(C5CCC(=O)NC5=O)C6=O)CC4)cc3OC)nc2N1C1CCCC1` (some centres unmarked) [Compound 901], the IC50 in the experiment on MV4;11 cells is no more than 100 nM; in the experiment with HL-60 cells it was no more than 1000 nM; in the experiment with NCIH82 cells it was no more than 1000 nM; in the experiment on HT-29 cells, 300 to 1000 nM; in the experiment on U-87MG cells, 100 to 500 nM.

For the molecule `CC[C@@H]1C(=O)N(C)c2cnc(Nc3ccc(C(=O)NC4CCN(CCNCCCOCCC#Cc5cccc6c5CN(C5CCC(=O)NC5=O)C6=O)CC4)cc3OC)nc2N1C1CCCC1` (some centres unmarked) [Compound 903], the IC50 in the experiment on MV4;11 cells was no more than 100 nM; in the experiment with HL-60 cells it was no more than 1000 nM; in the experiment on Daudi cells it was no more than 100 nM; with NCIH82 cells, no more than 1000 nM; in the experiment on HT-29 cells it was 300 to 1000 nM; with U-87MG cells, no more than 100 nM.

`CC[C@@H]1C(=O)N(C)c2cnc(Nc3ccc(C(=O)NC4CCN(CCOCCCC#Cc5cccc6c5CN(C5CCC(=O)NC5=O)C6=O)CC4)cc3OC)nc2N1C1CCCC1` (some centres unmarked) [Compound 902]: the half-inhibitory concentration (IC50) with HL-60 cells is no more than 1000 nM; with Daudi cells, no more than 100 nM; with NCIH82 cells it was no more than 1000 nM; with HT-29 cells, no more than 300 nM; in the experiment on U-87MG cells, no more than 100 nM.

For the molecule `CC[C@@H]1C(=O)N(C)c2cnc(Nc3ccc(C(=O)NC4CCN(CCNCCCOCCCC#Cc5cccc6c5CN(C5CCC(=O)NC5=O)C6=O)CC4)cc3OC)nc2N1C1CCCC1` (some centres unmarked) [Compound 899], the IC50 is no more than 100 nM in the experiment with MV4;11 cells; no more than 1000 nM with HL-60 cells; no more than 100 nM in the experiment with Daudi cells; no more than 1000 nM in the experiment with NCIH82 cells; no more than 300 nM in the experiment on HT-29 cells; no more than 100 nM in the experiment with U-87MG cells.

As to `CC[C@@H]1C(=O)N(C)c2cnc(Nc3ccc(C(=O)NC4CCN(CCCOCCN(C)CCC#Cc5cccc6c5CN(C5CCC(=O)NC5=O)C6=O)CC4)cc3OC)nc2N1C1CCCC1` (some centres unmarked) [Compound 897], the IC50 in the experiment with MV4;11 cells is no more than 100 nM; with HL-60 cells, no more than 1000 nM; with Daudi cells it was 100 to 1000 nM; with NCIH82 cells, no more than 1000 nM; with HT-29 cells, no more than 300 nM; in the experiment on U-87MG cells, 100 to 500 nM.

In the case of `CC[C@@H]1C(=O)N(C)c2cnc(Nc3ccc(C(=O)NC4CCN(CCN(C)CCCOCCCC#Cc5cccc6c5CN(C5CCC(=O)NC5=O)C6=O)CC4)cc3OC)nc2N1C1CCCC1` (some centres unmarked) [Compound 900], the 50% inhibitory concentration (IC50) with MV4;11 cells was no more than 100 nM; with HL-60 cells it was no more than 1000 nM; in the experiment on Daudi cells it was no more than 100 nM; in the experiment on NCIH82 cells it was no more than 1000 nM; in the experiment with HT-29 cells it was no more than 300 nM; in the experiment with U-87MG cells, no more than 100 nM.

In the case of `CC[C@@H]1C(=O)N(C)c2cnc(Nc3ccc(C(=O)NCCC#Cc4cccc5c4CN(C4CCC(=O)NC4=O)C5=O)cc3OC)nc2N1C1CCCC1` (some centres unmarked) [Compound 891], the IC50 with MV4;11 cells is 100 to 1000 nM; in the experiment with HL-60 cells it was no more than 1000 nM; in the experiment on NCIH82 cells, no more than 1000 nM; in the experiment with HT-29 cells, 300 to 1000 nM; with U-87MG cells, 100 to 500 nM.

On to `CC[C@@H]1C(=O)N(C)c2cnc(Nc3ccc(C(=O)NC4CCN(CCCOCCNCCC#Cc5cccc6c5CN(C5CCC(=O)NC5=O)C6=O)CC4)cc3OC)nc2N1C1CCCC1` (some centres unmarked) [Compound 895], for which the IC50 in the experiment with MV4;11 cells was no more than 100 nM; in the experiment with HL-60 cells, no more than 1000 nM; in the experiment on Daudi cells it was 100 to 1000 nM; with NCIH82 cells, no more than 1000 nM; in the experiment with HT-29 cells, 300 to 1000 nM; in the experiment on U-87MG cells it was 100 to 500 nM.
